Reference: article PMC12078564 (Nature Communications, 2025)
pKd: −log10 of the molar value.

How the values were obtained:
CtCGT = assay: HPLC C-glycosylation assay, Michaelis-Menten fit; type: biochemical, Carthamus tinctorius; details: read-out: apparent Km; saturated UDP-Glc as sugar donor
[1] = target: Ct2OGD1 (2-oxoglutarate-dependent dioxygenase), purified recombinant, NHS-labelled (Carthamus tinctorius); assay: MST

## O=C(CCc1ccc(O)cc1)c1c(O)cc(O)c([C@@H]2O[C@H](CO)[C@@H](O)[C@H](O)[C@H]2O)c1O [1a, nothofagin]
CtCGT
  Km: 284 µM

## O=C(CCc1ccc(O)cc1)c1c(O)cc(O)cc1O [compound 1, phloretin]
CtCGT
  Km: 1.86 µM

## CtCGT (flavonoid di-C-glycosyltransferase, UGT708U8), purified recombinant (enzyme)
[1]
  pKd: 6.27
